Test results from patent US20250019385A1, “SPIROCYCLIC ANNULATED 2-AMINO-3-CYANO THIOPHENES AND DERIVATIVES FOR THE TREATMENT OF CANCER” (Boehringer Ingelheim International GmbH, priority 2023, published 2025).

biological target: KRAS (G12D)::CRAF protein::protein interaction (Homo sapiens (Human), UniProt P01116, G12D); assay: KRAS TR-FRET assay (KRAS G12D::CRAF, GTP); format: binding; conditions: not given
Procedure: (§1) This assay measures the inhibitory effect of compounds on KRAS::CRAF protein::protein interactions in the presence of GTP using Time-resolved fluorescence energy transfer (TR-FRET).
(§2) The following wildtype or mutant alleles of KRAS and CRAF protein have been used at the given concentrations:
KRAS (G12D) 1-169, N-terminal 6His-tag, C-terminal avi-tag (Xtal BioStructures, Inc.); final assay concentration 15 nM,
(§3) CRAF Ras binding domain, GST-tag, TEV cleavage site (Boehringer Ingelheim in house protein prep); final assay concentration 15 nM.
(§4) Test compounds dissolved in DMSO were dispensed onto assay plates (Proxiplate 384 PLUS, white, PerkinElmer; 6008289) using an Access Labcyte Workstation with the Labcyte Echo 55x. For the chosen highest assay concentration of 100 μM, 150 nl of compound solution was transferred from a 10 mM DMSO compound stock solution. A series of eleven fivefold dilutions per compound was transferred to the assay plate, compound dilutions were tested in duplicates. DMSO was added as backfill to a total volume of 150 nl.
(§5) The assay runs on a fully automated robotic system. To 150 nl of compound dilution 15 μl of a mix including the respective KRAS allele, CRAF (e.g. KRAS (G12D)::CRAF; final assay concentrations see above), GTP nucleotide (Sigma G8877; final assay concentration 10 μM), Lance Eu—W1024 labeled Streptavidin (PerkinElmer, Cat No AD0063; final assay concentration 1.5 nM) and Anti-GST surelight APC (PerkinElmer, Cat No AD0059G; final assay concentration 30 nM) in assay buffer (1×PBS, 0.1% BSA, 0.05% Tween 20) are added into columns 1-23 and 15 μL of the solution without the respective KRAS allele were added to row 24.
(§6) Plates are kept at room temperature in a darkened incubator. After 60 minutes incubation time the signal is measured in a PerkinElmer Envision HTS Multilabel Reader using the TR-FRET LANCE Ultra specs from PerkinElmer.
(§7) Each plate contains 16 wells of a negative control (diluted DMSO instead of test compound; w respective KRAS allele; column 23) and 16 wells of a positive control (diluted DMSO instead of test compound; w/o respective KRAS allele; column 24).
(§8) IC50 values were calculated and analyzed with Boehringer Ingelheim's MEGALAB 50 application using a 4 parametric logistic model.
(§9) Tables of example compounds disclosed herein contain IC50 values determined using the above assays (see Table 44).

KRAS (G12D)::CRAF protein::protein interaction, sequence (P01116 other isoform, or with tags, fused parts or gaps G12D): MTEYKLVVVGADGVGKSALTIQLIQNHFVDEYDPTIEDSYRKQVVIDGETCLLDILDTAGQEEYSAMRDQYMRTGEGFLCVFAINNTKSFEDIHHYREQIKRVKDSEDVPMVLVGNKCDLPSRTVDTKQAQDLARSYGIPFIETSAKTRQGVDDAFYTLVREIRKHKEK

Going from `C[C@H](Oc1nc(-c2onc3c2CCC[C@@]32CCCc3sc(N)c(C#N)c32)nc2c1COC[C@]21CCOC1)[C@@H]1CCCN1C` [I-54] to `C[C@H](Oc1nc(-c2noc3c2CCC[C@@]32CCCc3sc(N)c(C#N)c32)nc2c1COC[C@@]21CCOC1)[C@@H]1CCCN1C` [II-9a], the IC50 rises from 25 nM to 283 nM (11-fold).

Going from `Cc1nn([C@@H]2CCOC2)c2nc(-c3onc4c3CCC[C@@]43CCCc4sc(N)c(C#N)c43)nc(O[C@@H](C)[C@@H]3CCCN3C)c12` [I-42] to `CCn1c(=O)n([C@@H]2CCOC2)c2nc(-c3onc4c3CCC[C@@]43CCCc4sc(N)c(C#N)c43)nc(O[C@@H](C)[C@@H]3CCCN3C)c21` [I-21], the IC50 falls from 263 nM to 85 nM (3.1-fold).

`C[C@H](Oc1nc(-c2onc3c2CCC[C@@]32CCCc3sc(N)c(C#N)c32)nc2c1n(C)c(=O)n2C1CCOCC1)[C@@H]1CCCN1C` [I-10] and `C[C@H](Oc1nc(-c2onc3c2CCC[C@@]32CCCc3sc(N)c(C#N)c32)nc2c1n(C)c(=O)n2C1COC1)[C@@H]1CCCN1C` [I-24] are within 1.5-fold of each other in IC50: 698 nM for the first, 565 nM for the second.

Compared with `COCCn1c(=O)n(C)c2c(O[C@@H](C)[C@@H]3CCCN3C)nc(-c3onc4c3CCC[C@@]43CCCc4sc(N)c(C#N)c43)nc21` [I-7], `CO[C@H]1C[C@@H]([C@H](C)Oc2nc(-c3onc4c3CCC[C@@]43CCCc4sc(N)c(C#N)c43)nc3c2n(C)c(=O)n3[C@@H]2CCOC2)N(C)C1` [I-2] is 5.7-fold lower in IC50: 2260 nM for the first, 400 nM for the second.

biological target: KRAS (G12V)::CRAF protein::protein interaction (Homo sapiens (Human), UniProt P01116, C118S/G12V); assay: KRAS TR-FRET assay (KRAS G12V::CRAF, GTP); format: binding; conditions: not given
Procedure: as §1, §2
KRAS (G12V) 1-169, C118S, N-terminal 6His-tag, C-terminal avi-tag (Boehringer Ingelheim in house protein prep); final assay concentration 15 nM.
as §3, §4, §5, §6, §7, §8, §9

KRAS (G12V)::CRAF protein::protein interaction, sequence (P01116 other isoform, or with tags, fused parts or gaps G12V/C118S): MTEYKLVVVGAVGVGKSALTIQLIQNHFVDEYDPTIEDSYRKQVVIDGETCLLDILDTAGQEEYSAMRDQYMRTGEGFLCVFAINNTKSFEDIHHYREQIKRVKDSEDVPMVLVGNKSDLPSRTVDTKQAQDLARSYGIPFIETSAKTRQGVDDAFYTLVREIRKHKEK

First: C[C@H](Oc1nc(-c2onc3c2CCC[C@@]32CCCc3sc(N)c(C#N)c32)nc2c1COC[C@]21CCOC1)[C@@H]1CCCN1C [I-54]
Second: C[C@H](Oc1nc(-c2noc3c2CCC[C@@]32CCCc3sc(N)c(C#N)c32)nc2c1COC[C@@]21CCOC1)[C@@H]1CCCN1C [II-9a]
The IC50 of the first is 12-fold lower: 12 nM for the first, 142 nM for the second. The first is the more potent here.

Compared with `Cc1nn([C@@H]2CCOC2)c2nc(-c3onc4c3CCC[C@@]43CCCc4sc(N)c(C#N)c43)nc(O[C@@H](C)[C@@H]3CCCN3C)c12` [I-42], `CCn1c(=O)n([C@@H]2CCOC2)c2nc(-c3onc4c3CCC[C@@]43CCCc4sc(N)c(C#N)c43)nc(O[C@@H](C)[C@@H]3CCCN3C)c21` [I-21] is 3.1-fold lower in IC50: 115 nM for the first, 37 nM for the second. The second is the more potent here.

`C[C@H](Oc1nc(-c2onc3c2CCC[C@@]32CCCc3sc(N)c(C#N)c32)nc2c1n(C)c(=O)n2C1CCOCC1)[C@@H]1CCCN1C` [I-10] and `C[C@H](Oc1nc(-c2onc3c2CCC[C@@]32CCCc3sc(N)c(C#N)c32)nc2c1n(C)c(=O)n2C1COC1)[C@@H]1CCCN1C` [I-24] are within 1.5-fold of each other in IC50: 110 nM for the first, 153 nM for the second.

Compared with `COCCn1c(=O)n(C)c2c(O[C@@H](C)[C@@H]3CCCN3C)nc(-c3onc4c3CCC[C@@]43CCCc4sc(N)c(C#N)c43)nc21` [I-7], `CO[C@H]1C[C@@H]([C@H](C)Oc2nc(-c3onc4c3CCC[C@@]43CCCc4sc(N)c(C#N)c43)nc3c2n(C)c(=O)n3[C@@H]2CCOC2)N(C)C1` [I-2] is 2.5-fold lower in IC50: 451 nM for the first, 180 nM for the second.

biological target: KRAS (WT)::CRAF protein::protein interaction (Homo sapiens (Human), UniProt P01116); assay: KRAS TR-FRET assay (KRAS WT::CRAF, GTP); format: binding; conditions: not given
Procedure: as §1, §2
KRAS (WT) 1-169, N-terminal 6His-tag, C-terminal avi-tag (Boehringer Ingelheim in house protein prep); final assay concentration 15 nM.
as §3, §4, §5, §6, §7, §8, §9

KRAS (WT)::CRAF protein::protein interaction, sequence (P01116 other isoform, or with tags, fused parts or gaps): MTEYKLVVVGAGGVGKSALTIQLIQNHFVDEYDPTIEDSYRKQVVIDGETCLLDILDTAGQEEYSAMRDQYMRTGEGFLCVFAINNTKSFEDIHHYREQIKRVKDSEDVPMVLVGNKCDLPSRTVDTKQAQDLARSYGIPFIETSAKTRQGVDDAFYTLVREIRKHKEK

Compared with `C[C@H](Oc1nc(-c2onc3c2CCC[C@@]32CCCc3sc(N)c(C#N)c32)nc2c1COC[C@]21CCOC1)[C@@H]1CCCN1C` [I-54], `C[C@H](Oc1nc(-c2noc3c2CCC[C@@]32CCCc3sc(N)c(C#N)c32)nc2c1COC[C@@]21CCOC1)[C@@H]1CCCN1C` [II-9a] is 18-fold higher in IC50: 33 nM for the first, 581 nM for the second. The first is the more potent here.

First: Cc1nn([C@@H]2CCOC2)c2nc(-c3onc4c3CCC[C@@]43CCCc4sc(N)c(C#N)c43)nc(O[C@@H](C)[C@@H]3CCCN3C)c12 [I-42]
Second: CCn1c(=O)n([C@@H]2CCOC2)c2nc(-c3onc4c3CCC[C@@]43CCCc4sc(N)c(C#N)c43)nc(O[C@@H](C)[C@@H]3CCCN3C)c21 [I-21]
The IC50 of the first is 2.9-fold higher: 273 nM for the first, 95 nM for the second.

Compared with `C[C@H](Oc1nc(-c2onc3c2CCC[C@@]32CCCc3sc(N)c(C#N)c32)nc2c1n(C)c(=O)n2C1CCOCC1)[C@@H]1CCCN1C` [I-10], `C[C@H](Oc1nc(-c2onc3c2CCC[C@@]32CCCc3sc(N)c(C#N)c32)nc2c1n(C)c(=O)n2C1COC1)[C@@H]1CCCN1C` [I-24] is 2.2-fold higher in IC50: 348 nM for the first, 749 nM for the second. The first is the more potent here.

Compared with `COCCn1c(=O)n(C)c2c(O[C@@H](C)[C@@H]3CCCN3C)nc(-c3onc4c3CCC[C@@]43CCCc4sc(N)c(C#N)c43)nc21` [I-7], `CO[C@H]1C[C@@H]([C@H](C)Oc2nc(-c3onc4c3CCC[C@@]43CCCc4sc(N)c(C#N)c43)nc3c2n(C)c(=O)n3[C@@H]2CCOC2)N(C)C1` [I-2] is 2.7-fold lower in IC50: 1150 nM for the first, 422 nM for the second. The second is the more potent here.

system: Ba/F3 cells KRAS G12D; assay: Ba/F3 proliferation assay (KRAS G12D); format: cell-based; conditions: Mus musculus, BaF3, 72 h, AlamarBlue viability
Procedure: Ba/F3 cells are ordered from DSMZ (ACC300, Lot17) and grown in RPMI-1640 (ATCC 30-2001)+10% FCS+10 ng/mL IL-3 at 37° C. in 5% […] atmosphere. Plasmids containing KRASG12 mutants (i.e. […], G12C, G12V) are obtained from GeneScript. To generate KRASG12-dependent Ba/F3 models, Ba/F3 cells are transduced with retroviruses containing vectors that harbor KRASG12 isoforms. Platinum-E cells (Cell Biolabs) are used for retrovirus packaging. Retrovirus is added to Ba/F3 cells. To ensure infection, 4 μg/mL polybrene is added and cells are spinfected. Infection efficiency is confirmed by measuring GFP-positive cells using a cell analyzer. Cells with an infection efficiency of 10% to 20% are further cultivated and puromycin selection with 1 μg/mL is initiated. As a control, parental Ba/F3 cells are used to show selection status. Selection is considered successful when parental Ba/F3 cells cultures died. To evaluate the transforming potential of KRASG12 mutations, the growth medium is no longer supplemented with IL-3. Ba/F3 cells harboring the empty vector are used as a control. Approximately ten days before conducting the experiments, puromycin is left out.
For proliferation assays, Ba/F3 cells are seeded into 384-well plates at 1.5×1 (M cells/60 μL in growth media (RPMI-1640+10% FCS). Compounds (10 mM stock in DMSO) are added at logarithmic dose series using the ECHO acoustic liquid handler system (Beckman Coulter), normalizing for added DMSO and including DMSO controls. All compound treatments are performed in technical duplicates. For the TO time point measurement, untreated cells are analyzed at the time of compound addition. Treated cells are incubated for 72 h at 37° C. with 5% CO2 and cell viability is measured in the PerkinElmer Envision Multimode Reader using AlamarBlue™ (ThermoFisher) viability stain. Viability (stated as percent of control) is defined as relative fluorescence units RFU of each well divided by the RFU of cells in DMSO controls. IC50 values are determined from viability measurements by non-linear regression using a four-parameter model.

Compared with `C[C@H](Oc1nc(-c2onc3c2CCC[C@@]32CCCc3sc(N)c(C#N)c32)nc2c1COC[C@]21CCOC1)[C@@H]1CCCN1C` [I-54], `C[C@H](Oc1nc(-c2noc3c2CCC[C@@]32CCCc3sc(N)c(C#N)c32)nc2c1COC[C@@]21CCOC1)[C@@H]1CCCN1C` [II-9a] is 15-fold higher in IC50: 4 nM for the first, 59 nM for the second.

Going from `Cc1nn([C@@H]2CCOC2)c2nc(-c3onc4c3CCC[C@@]43CCCc4sc(N)c(C#N)c43)nc(O[C@@H](C)[C@@H]3CCCN3C)c12` [I-42] to `CCn1c(=O)n([C@@H]2CCOC2)c2nc(-c3onc4c3CCC[C@@]43CCCc4sc(N)c(C#N)c43)nc(O[C@@H](C)[C@@H]3CCCN3C)c21` [I-21], the IC50 falls from 37 nM to 21 nM (1.8-fold).

`C[C@H](Oc1nc(-c2onc3c2CCC[C@@]32CCCc3sc(N)c(C#N)c32)nc2c1n(C)c(=O)n2C1CCOCC1)[C@@H]1CCCN1C` [I-10] and `C[C@H](Oc1nc(-c2onc3c2CCC[C@@]32CCCc3sc(N)c(C#N)c32)nc2c1n(C)c(=O)n2C1COC1)[C@@H]1CCCN1C` [I-24] are within 1.5-fold of each other in IC50: 118 nM for the first, 134 nM for the second.

Compared with `COCCn1c(=O)n(C)c2c(O[C@@H](C)[C@@H]3CCCN3C)nc(-c3onc4c3CCC[C@@]43CCCc4sc(N)c(C#N)c43)nc21` [I-7], `CO[C@H]1C[C@@H]([C@H](C)Oc2nc(-c3onc4c3CCC[C@@]43CCCc4sc(N)c(C#N)c43)nc3c2n(C)c(=O)n3[C@@H]2CCOC2)N(C)C1` [I-2] is 2.3-fold lower in IC50: 204 nM for the first, 90 nM for the second.
